Experimental findings from patent US8173387B2, “Method of examining chemical using gene-disrupted strain” (priority 2003, dated 2012) are described below.

Common to all, as to assay type: cell-based, Saccharomyces cerevisiae
Experiment [1] relates to gene-disrupted strain DEL022 (YLR226W) transformed with a plasmid p-YBR072W. The experiment in a line: promoter assay (GFP reporter), Example 2. The following applies: GFP fluorescence 4 hours after loading, parent strain BY4743. How it is done:
(§1) In a gene-disrupted strain, a growing rate becomes small so much, or medium components in which the strain can be grown are different in some cases, depending on a disrupted gene. Then, in the present experiment studying a host cell of a promoter assay method, in view of easy comparison with a control experiment, among gene-disrupted strains obtained as the result of Example 1, a few strains which have sensitivity to many chemicals and are grown by the same procedure as that of a parent strain were selected. Selected gene-disrupted strains are 8 strains of DEL000, DEL002, DEL011, DEL014, DEL016, DEL019, DEL022 and DEL025 in Table 7. Further, as a control, a parent strain, BY4743 was used.
(§2) A competent cell of each of a parent strain of a gene-disrupted strain and selected gene-disrupted strains was prepared. This competent cell was transformed using two kinds of prepared plasmids for promoter assay, p-YBR072W (in which GFP was connected understream of a promoter of YBR072W) and p-YPL171C (in which GFP was connected downstream of a promoter of YPL171C).
(§3) The resulting transformant was grown to the steady state by shaking-culturing on a SD medium (histidine, leucine) at 25° C. The transformant in the steady state was diluted 500-fold with the same medium, shaking-cultured at 25° C. for 15 hours and, after it was confirmed that an absorbance at 600 nm was 0.2 to 0.5 as a logarithmic growth phase, chemicals having different concentrations were loaded. After loading of chemicals, fluorescence of cells which had been cultured for 4 hours was measured using a flow cytometer (FITC filter, EPICS XL-MCL, Bechmancoulter), and this was adopted as an expression amount of GFP (green fluorescence protein) which is a marker gene. A fluorescence intensity of 10000 cells was measured with a flow cytometer by one measurement and an average of fluorescence intensities of all cells was obtained, and was adopted as a measured value. Similarly, a fluorescence intensity of a cell to which a chemical had not been loaded was obtained, and results are shown as a fluorescence intensity ratio.

The test system of experiment [2] is gene-disrupted strain DEL019 (YIL036W) transformed with a plasmid p-YBR072W. The experiment in a line: promoter assay (GFP reporter), Example 2. The following applies: DEL 019, p-YBR072W, GFP fluorescence 4 hours after loading, parent strain BY4743. As for the experimental part: as §1, §2, §3
The test system of experiment [3] is gene-disrupted strain DEL000 (YPR036W) transformed with a plasmid p-YBR072W. Description: promoter assay (GFP reporter), Example 2. The note with it: GFP fluorescence 4 hours after loading, parent strain BY4743. As for the experimental part: as §1, §2, §3
The subject of experiment [4] is gene-disrupted strain DEL025 (YLR311C) transformed with a plasmid p-YBR072W. Description: promoter assay (GFP reporter), Example 2. The following applies: DEL025, p-YBR072W, GFP fluorescence 4 hours after loading, parent strain BY4743. How it is done:
as §1, §2, §3

In experiment [5] the test system is homozygous diploid of gene-disrupted strain DEL007 (YKL080W) transformed with a plasmid p-YBR072W. Description: promoter assay (GFP reporter), Example 3. The note with it: EL007 homozygous diploid, W303 background. An excerpt:
(§4) In order to prepare a gene-disrupted strain transformation cassette, genes having chemical sensitivity; YPR036W(DEL000), YDL151C(DEL001), YGL026C(DEL003), YHR039C-A(DEL006), YKL080W(DEL007), YLR447C(DEL008), YGR006W(DEL012), YGR105W(DRL013), YJR104C(DEL014), YGL206C(DEL018), YIL036W(DEL019), YKL119C(DEL020), YLR226W(DEL022) and YLR311C(DEL025) in Table 7 were selected, and each gene was replaced with a transformation marker such as kanamycin resistance. As primers for performing PCT amplification, a N-terminal side (ORF(upper)) and a C-terminal side (ORF(lower)) in each ORF were used. A length of a sequence (ORF(upper) and ORF(lower)) of a primer homologues with ORF was 46 or 50 bp.
(§5) A W303 a mating type (ATCC200903) and a W303α mating type (ATCC201238) in which the same gene was gene disruption-manipulated were mated by a mating procedure (Yeast Gene Experimental Manual: Maruzen Co., Ltd., p 83-92) to prepare homozygous diploids. Separately, mating of a W303a mating type, and a non-gene-disrupted W303α type was performed by the similar procedure to prepare heterozygous diploids.
(§6) By such the procedure, homozygous diploids of DEL000, DEL001, DEL003, DEL006, DEL007, DEL008, DEL012, DEL013, DEL014, DEL018, DEL019, DEL020, DEL022 and DEL025 in Table 7 were prepared. In addition, heterozygous diploids in which DEL006, DEL014 and DEL 022 were mated with a non-gene-disrupted strain (hereafter, referred to as DEL006 heterozygous diploid, DEL 014 heterozygous diploid, DEL022 heterozygous diploid) and, further, a heterozygous diploid in which DEL000 and DEL014 were mated (hereafter, referred to as DEL000/014 heterozygous diploid) were prepared.
(§7) Competent cells of W303 ATCC201239 (MATa/MATα leu2-3/leu2-3 leu2-112/leu2-112 trp1-1/trp1-1 ura3-1/ura3-1 his 3-11/his3-11 his3-15/his3-15 ade2-1/ade2-1 can1-100/can1-100) which is a parent strain of gene-disrupted strains, and each of prepared gene-disrupted strains were prepared. The competent cells were transformed using two kind of prepared plasmid for promoter assay, p-YBR072W (in which GFP is connected downstream of a promoter of YBR072W) and p-YPL171C (in which GFP is connected downstream of a promoter of YPL171C).
(§8) The resulting transformant was grown to the steady state by shaking-culturing on a SD medium (adenine, hystidine, triptophan, leucine) at 25° C. The transformant in the steady state was diluted 500-fold with the same medium, shaking-cultured at 25° C. for 15 hours and, after it was confirmed that an absorbance at 600 nm was 0.2 to 0.5 as a logarithmic growth phase, chemicals having different concentrations were loaded. After loading of chemicals, fluorescence of cells which had been cultured for 4 hours was measured using a flow cytometer (FITC filter, EPICS XL-MCL, Bechmancoulter), and this was adopted as an expression amount of GFP (green fluorescence protein) which is a marker gene. A fluorescence intensity of 10000 cells was measured with a flow cytometer by one measurement and an average of fluorescence intensities of all cells was obtained, and was adopted as a measured value. Similarly, a fluorescence intensity of a cell to which a chemical had not been loaded was obtained, and results are shown as difference in a fluorescence intensity.

For experiment [6], the system named is homozygous diploid of gene-disrupted strain DEL022 (YLR226W) transformed with a plasmid p-YBR072W. Description: promoter assay (GFP reporter), Example 3. The note with it: DEL022 (DEL0022) homozygous diploid, W303 background.
From the text: as §4, §5, §6, §7, §8

The subject of experiment [7] is homozygous diploid of gene-disrupted strain DEL020 (YKL119C) transformed with a plasmid p-YBR072W. The experiment in a line: promoter assay (GFP reporter), Example 3. The note with it: W303 background.
From the text: as §4, §5, §6, §7, §8

Experiment [8] relates to heterozygous diploid of gene-disrupted strain DEL022 (YLR226W) transformed with a plasmid p-YBR072W. Description: promoter assay (GFP reporter), Example 3. The note with it: DEL0022 heterozygous diploid, W303 background.
From the text: as §4, §5, §6, §7, §8

Experiment [9] deals with homozygous diploid of gene-disrupted strain DEL013 (YGR105W) transformed with a plasmid p-YBR072W. Description: promoter assay (GFP reporter), Example 3. The following applies: W303 background.
From the text: as §4, §5, §6, §7, §8

Experiment [10] deals with homozygous diploid of gene-disrupted strain DEL006 (YHR039C-A) transformed with a plasmid p-YBR072W. Description: promoter assay (GFP reporter), Example 3. The following applies: W303 background.
From the text: as §4, §5, §6, §7, §8

The subject of experiment [11] is homozygous diploid of gene-disrupted strain DEL012 (YGR006W) transformed with a plasmid p-YBR072W. Description: promoter assay (GFP reporter), Example 3. The note with it: W303 background.
From the text: as §4, §5, §6, §7, §8

The subject of experiment [12] is gene-disrupted strain DEL011 (YGL240W) transformed with a plasmid p-YBR072W. The experiment in a line: promoter assay (GFP reporter), Example 2. The following applies: GFP fluorescence 4 hours after loading, parent strain BY4743. How it is done: as §1, §2, §3
Experiment [13] concerns gene-disrupted strain DEL011 (YGL240W) transformed with a plasmid p-YPL171C. Description: promoter assay (GFP reporter), Example 2. The note with it: GFP fluorescence 4 hours after loading, parent strain BY4743. How it is done:
as §1, §2, §3

Experiment [14] concerns gene-disrupted strain DEL016 (YCR028C) transformed with a plasmid p-YBR072W. Description: promoter assay (GFP reporter), Example 2. The note with it: GFP fluorescence 4 hours after loading, parent strain BY4743. How it is done: as §1, §2, §3
The subject of experiment [15] is gene-disrupted strain DEL014 (YJR104C) transformed with a plasmid p-YBR072W. Description: promoter assay (GFP reporter), Example 2. The note with it: GFP fluorescence 4 hours after loading, parent strain BY4743. As for the experimental part:
as §1, §2, §3

The test system of experiment [16] is homozygous diploid of gene-disrupted strain DEL022 (YLR226W) transformed with a plasmid p-YPL171C. Description: promoter assay (GFP reporter), Example 3. The following applies: W303 background.
From the text: as §4, §5, §6, §7, §8

Experiment [17] deals with homozygous diploid of gene-disrupted strain DEL014 (YJR104C) transformed with a plasmid p-YPL171C. Description: promoter assay (GFP reporter), Example 3. The note with it: W303 background.
From the text: as §4, §5, §6, §7, §8

The subject of experiment [18] is homozygous diploid of gene-disrupted strain DEL006 (YHR039C-A) transformed with a plasmid p-YPL171C. Description: promoter assay (GFP reporter), Example 3. The following applies: W303 background.
From the text: as §4, §5, §6, §7, §8

The subject of experiment [19] is heterozygous diploid DEL000/014 transformed with a plasmid p-YPL171C. Description: promoter assay (GFP reporter), Example 3. The note with it: heterozygous diploid DEL000/014, p-YPL171C, W303 background.
From the text: as §4, §5, §6, §7, §8

Experiment [20] concerns homozygous diploid of gene-disrupted strain DEL008 (YLR447C) transformed with a plasmid p-YPL171C. Description: promoter assay (GFP reporter), Example 3. The following applies: W303 background.
From the text: as §4, §5, §6, §7, §8

The subject of experiment [21] is homozygous diploid of gene-disrupted strain DEL003 (YGL026C) transformed with a plasmid p-YPL171C. Description: promoter assay (GFP reporter), Example 3. The following applies: W303 background.
From the text: as §4, §5, §6, §7, §8

Experiment [22] relates to homozygous diploid of gene-disrupted strain DEL007 (YKL080W) transformed with a plasmid p-YPL171C. The experiment in a line: promoter assay (GFP reporter), Example 3. The following applies: W303 background.
From the text: as §4, §5, §6, §7, §8

For experiment [23], the system named is homozygous diploid of gene-disrupted strain DEL020 (YKL119C) transformed with a plasmid p-YPL171C. Description: promoter assay (GFP reporter), Example 3. The following applies: DEL0020 homozygous diploid, W303 background.
From the text: as §4, §5, §6, §7, §8

The subject of experiment [24] is homozygous diploid of gene-disrupted strain DEL001 (YDL151C) transformed with a plasmid p-YPL171C. The experiment in a line: promoter assay (GFP reporter), Example 3. The note with it: W303 background.
From the text: as §4, §5, §6, §7, §8

Experiment [25] relates to heterozygous diploid of gene-disrupted strain DEL006 (YHR039C-A) transformed with a plasmid p-YPL171C. The experiment in a line: promoter assay (GFP reporter), Example 3. The following applies: W303 background.
From the text: as §4, §5, §6, §7, §8

For `CCN(CC)C(=O)SCc1ccc(Cl)cc1` [benthiocarb], the “concentration at which the strain responded, as fraction of a concentration of a parent strain” value is reported as 1/10 in [1], 1/100 in experiment [2], 1/3 in experiment [3] and 1/3 in experiment [4]. In addition, the “concentration at which sensitivity is shown, as fraction of a concentration of a gene-non-disrupted strain” value in [5] is reported as 1/10; in experiment [6], 1/10; in experiment [7], 1/3; in experiment [8] it was 1/3; in [9] it was 1/3; in experiment [10], 1/10. Further, the “concentration at which sensitivity is shown, as fraction of a concentration of a gene-non-disrupted strain” value in experiment [11] is 1/3.

`O=[As][O-].[Na+]` [sodium metaarsenite]: the “concentration at which the strain responded, as fraction of a concentration of a parent strain” value in experiment [12] was 1/10; in [13], 1/3; in [14], 1/3; in experiment [15] it was 1/3000. Further, the “concentration at which sensitivity is shown, as fraction of a concentration of a gene-non-disrupted strain” value in experiment [16] was 1/3; in experiment [17], 1/30; in [18], 1/30; in experiment [19], 1/30; in experiment [20], 1/3; in experiment [21] it was 1/3.

In the case of `CN(C)C(=S)SSC(=S)N(C)C` [thiuram], the “concentration at which sensitivity is shown, as fraction of a concentration of a gene-non-disrupted strain” value in experiment [16] is 1/1000; in experiment [22], 1/1000; in experiment [18], 1/10; in experiment [23], 1/3; in experiment [24] it was 1/3; in [25], 1/10.
